Assay: Drop size / reproducibility of drops of oral solutions with xanthan gum
Type: physicochemical
Details: metoprolol 200 mg/ml, sotalol 160 mg/ml, atenolol 50 mg/ml, n = 10
Description: It was found also in this respect that when the concentration of Xanthan Gum was varied in the solution, the scattering of the exact number of drops was higher at both below and above 0.1% than at about this particular concentration (see Table II.).
Using a standard medicine dropper, 10 drops of the medicinal solutions prepared according to Examples 1-11 contain one usual dose of the beta-blocker in a stable form and ensuring reproducible dosage with the required accuracy, the difference by one drop corresponding to a deviation of less than 10%.
Drop size values of different solutions of β-blockers
and xanthan gum as auxiliary material (n = 10,

## CC(C)NCC(O)COc1ccc(CC(N)=O)cc1 (stereo not drawn) [Atenolol, atenolol]
0.001% xanthan gum
  Average Mass of 10 Drops: 0.4038 g
0.01% xanthan gum
  Average Mass of 10 Drops: 0.4094 g
0.1% xanthan gum
  Average Mass of 10 Drops: 0.4395 g
0.25% xanthan gum
  Average Mass of 10 Drops: 0.4604 g
0.5% xanthan gum
  Average Mass of 10 Drops: 0.4456 g

## COCCc1ccc(OCC(O)CNC(C)C)cc1 (stereo not drawn) [Metoprolol, metoprolol]
0.001% xanthan gum
  Average Mass of 10 Drops: 0.3490 g
0.01% xanthan gum
  Average Mass of 10 Drops: 0.3446 g
0.1% xanthan gum
  Average Mass of 10 Drops: 0.3301 g
0.25% xanthan gum
  Average Mass of 10 Drops: 0.3497 g
0.5% xanthan gum
  Average Mass of 10 Drops: 0.3559 g

## CC(C)NCC(O)c1ccc(NS(C)(=O)=O)cc1 (stereo not drawn) [Sotalol, sotalol]
0.001% xanthan gum
  Average Mass of 10 Drops: 0.3805 g
0.01% xanthan gum
  Average Mass of 10 Drops: 0.4067 g
0.1% xanthan gum
  Average Mass of 10 Drops: 0.4171 g
0.25% xanthan gum
  Average Mass of 10 Drops: 0.4345 g
0.5% xanthan gum
  Average Mass of 10 Drops: 0.4052 g
